Literature values in patent US10332616B2, “Movable type method applied to protein-ligand binding” (University of Florida Research Foundation, Inc., priority 2013, dated 2019).

Conditions: aqueous solvation free energy, charged compounds (ions)

Structure (SMILES) | Exp. ΔGsolv [kcal/mol]
CN [i003, methylamine, reference compound] | -76.40
CCCN [i004, n-propylamine, reference compound] | -71.50
C=CCN [i008, allylamine, reference compound] | -72.00
Cc1cccc(N)c1 [i020, 3-methylaniline, reference compound] | -69.60
Cc1ccc(N)cc1 [i021, 4-methylaniline, reference compound] | -69.80
Nc1cccc(N)c1 [i023, 3-aminoaniline, reference compound] | -65.80
N [i047, ammonia, reference compound] | -85.20
CC(=O)O [i059, aceticacid, reference compound] | -77.60
CCC(=O)O [i060, propanoicacid, reference compound] | -76.20
CCCCCC(=O)O [i061, hexanoicacid, reference compound] | -74.60
C=CC(=O)O [i062, acrylicacid, reference compound] | -74.00
CC(=O)C(=O)O [i063, pyruvicacid, reference compound] | -68.50
O=C(O)c1ccccc1 [i064, benzoicacid, reference compound] | -71.20
COc1ccc(N)cc1 [i093, 4-methoxyaniline, reference compound] | -71.20
O=C(O)C(F)(F)F [i118, trifluoroaceticacid, reference compound] | -59.30
O=C(O)CCl [i119, chloroaceticacid, reference compound] | -69.70
O=C(O)C(Cl)Cl [i120, dichloroaceticacid, reference compound] | -62.30
Nc1cccc(Cl)c1 [i125, 3-chloroaniline, reference compound] | -74.70

Same assay, conditions: experimental solvation free energy, neutral compounds test set

Structure (SMILES) | Exp. ΔGsolv [kcal/mol]
OCC(F)(F)F [Compound 0207tri] | -4.31
FC(F)OC(Cl)C(F)(F)F (stereo not drawn) [Compound 0209chl] | 0.11
CC(O)C(F)(F)F (stereo not drawn) [Compound 0211tri] | -4.16
OC(C(F)(F)F)C(F)(F)F [Compound 0212hex] | -3.77
C=COCC(F)(F)F [Compound 0214tri] | -0.12
COP(=O)(OC)OC [Compound 0220tri] | -8.7
CCOP(=O)(OCC)OCC [Compound 0221tri] | -7.8
CCSSCC [Compound 0223die] | -1.63
C1CCNCC1 [Compound 0225pipa] | -5.11
CN1CCOCC1 [Compound 0227Nme] | -6.34
CN [Compound 0228met] | -4.56
CC(N)=O [Compound 0233ethb] | -9.71
CNC(C)=O [Compound 0234ENmb] | -10
CNC(C)=O [Compound 0235ZNmb] | -10
CCCCCCCC=O [Compound 0237oct] | -2.29
CCCCCCCC(=O)OC [Compound 0238met] | -2.04
COC(=O)c1ccccc1 [Compound 0240met] | -3.91

Structure (SMILES) | Exp. ΔGsolv [kcal/mol]
CC(C)OC(C)C [Compound 0242dii] | -0.53
C1CCOCC1 [Compound 0244tet] | -3.12
c1ccsc1 [Compound 0245thi] | -1.42
CCOc1ccccc1 [Compound 0246eth] | -2.22
CN(C)C(=O)Nc1ccccc1 [Compound 0401amia] | -9.63
N#Cc1cc(Br)c(O)c(Br)c1 [Compound 0425dbr] | -9
N#Cc1c(Cl)cccc1Cl [Compound 0426dcl] | -5.22
Nc1c(Cl)c(Cl)nc(C(=O)O)c1Cl [Compound 0428ami] | -11.96
CCOP(=S)(OCC)Oc1ccc(Cl)cc1Cl [Compound 0438pho] | -3.86
COP(=S)(OC)Oc1ccc([N+](=O)[O-])cc1 [Compound 0441pho] | -7.62
CCCSP(=O)(OCC)Oc1ccc(Br)cc1Cl (stereo not drawn) [Compound 0442pho] | -4.09
Cc1ccccc1N [n009] | -5.56
Cc1ccc(N)cc1 [n011] | -5.55
CN(C)c1ccccc1 [n014] | -3.58
CC(=O)OCC(COC(C)=O)OC(C)=O [test0001] | -8.84
COc1ccc(C(=O)N(C)C)cc1 [test0005] | -11.01
Cc1ccc(C(=O)N(C)C)cc1 [test0006] | -9.76

Same assay, conditions: experimental solvation free energy; test set with 372 neutral compounds

Structure (SMILES) | Exp. ΔGsolv [kcal/mol]
ClCC(Cl)Cl [Compound 0166tri] | -1.95
CCCCl [Compound 0167chla] | -0.27
CC(C)Cl [Compound 0168chl] | -0.25
C=CCl [Compound 0169chl] | -0.59
C=CCCl [Compound 0170chl] | -0.57
Cl/C=C\Cl [Compound 0171Zdi] | -1.17
Cl/C=C/Cl [Compound 0172Edi] | -0.76
ClC=C(Cl)Cl [Compound 0173tri] | -0.39
Clc1ccccc1 [Compound 0174chl] | -1.12
Clc1ccccc1Cl [Compound 0175odi] | -1.36
Clc1ccc(Cl)cc1 [Compound 0176pdi] | -1.01
CBr [Compound 0177bro] | -0.82
BrCBr [Compound 0178dib] | -2.11
BrC(Br)Br [Compound 0179tri] | -1.98
CCBr [Compound 0180bro] | -0.7
CCCBr [Compound 0182bro] | -0.56
CC(C)Br [Compound 0183bro] | -0.48
CCCCBr [Compound 0184bro] | -0.41
CCCCCBr [Compound 0185bro] | -0.08

Structure (SMILES) | Exp. ΔGsolv [kcal/mol]
Brc1ccccc1 [Compound 0186bro] | -1.46
Brc1ccc(Br)cc1 [Compound 0187dib] | -2.3
FC(F)(F)Br [Compound 0197bro] | 1.79
FCCl [Compound 0198chl] | -0.77
FC(F)Cl [Compound 0199chl] | -0.5
FC(F)(F)F [Compound 0200tet] | 3.16
FC(F)(F)C(Cl)Br (stereo not drawn) [Compound 0201bro] | -0.13
ClCCBr [Compound 0202bro] | -1.95
FC(Br)C(F)(F)F (stereo not drawn) [Compound 0203bro] | 0.52
ClC(Cl)=C(Cl)Cl [Compound 0204tet] | 0.05
FC(F)(F)CCl [Compound 0205chl] | 0.06
FC(F)(Cl)C(F)(Cl)Cl [Compound 0206tri] | 1.77
CCc1cnccn1 [Compound 0230eth] | -5.51
Cn1cnc2c(N)ncnc21 [Compound 0402adn] | -13.6
FC(F)(F)C(F)(F)F [Compound 0405hex] | 3.94
FC(F)(F)C(F)(F)C(F)(F)F [Compound 0406oct] | 4.28
ClCC(Cl)(Cl)Cl [Compound 0407tet] | -1.15
ClC(Cl)(Cl)C(Cl)(Cl)Cl [Compound 0408hex] | -1.4
CCC(C)Cl (stereo not drawn) [Compound 0409clb] | 0.07

Structure (SMILES) | Exp. ΔGsolv [kcal/mol]
CCCCCCl [Compound 0410clp] | 0.07
CCCC(C)Cl (stereo not drawn) [Compound 0411chp] | 0.07
Cc1ccccc1Cl [Compound 0413clt] | -1.15
Clc1ccccc1-c1ccccc1Cl [Compound 0414dcl] | -2.73
Clc1cccc(-c2ccccc2)c1Cl [Compound 0415dcl] | -2.45
Clc1ccccc1-c1cccc(Cl)c1Cl [Compound 0416dcl] | -1.99
C=CCBr [Compound 0417brp] | -0.86
CC(C)CBr [Compound 0418bri] | -0.03
Cc1ccc(Br)cc1 [Compound 0420pbr] | -1.39
FC(F)(Cl)Cl [Compound 0421dfl] | 1.69
FC(Cl)(Cl)Cl [Compound 0422ftc] | 0.82
ClC(Cl)(Cl)Br [Compound 0423brt] | -0.93
FC(F)(F)C(F)(F)Cl [Compound 0424clp] | 2.86
NC(=S)c1c(Cl)cccc1Cl [Compound 0427dcl] | -10.81
COP(=O)(OC)OC=C(Cl)Cl [Compound 0433pho] | -6.61
COP(=S)(OC)Oc1cc(Cl)c(Cl)cc1Cl [Compound 0444pho] | -5.06
COP(=S)(OC)Oc1cc(Cl)c(Br)cc1Cl [Compound 0445pho] | -5.7
C[N+](=O)[O-] [Compound 0506nit] | -3.95
FC(F)(F)c1cccc(C(F)(F)F)c1 [test0004] | 1.07

Same assay, conditions: neutral molecule

Structure (SMILES) | ΔGsol experimental value [kcal/mol]
CCOOCC [ethylperoxide, reference compound] | -5.32
COO [methylperoxide, reference compound] | -5.28
